# Measured values as given in patent US20170066717A1, “NEW PHENYLAZETIDINECARBOXYLATE OR -CARBOXAMIDE COMPOUNDS” (INVENTIVA, priority 2014, published 2017).
# pEC50: −log10 of the molar value.
# Experiments:
# NURR-1/RXRα = molecular target: T1, NURR-1/RXRα (Homo sapiens, UniProt P19793); assay: Transactivation test, NURR-1-Gal4/RXRα, luciferase reporter in Cos-7 cells; type: cell-based; conditions: for Emax: COS-7, induction level relative to reference XCT0135908 at 2×10^−5 M (=100%), read-out: hNurr1_RXRaFL Emax (%); for pEC50: Cos-7 cells, NURR-1-Gal4/RXRα, luciferase reporter, read-out: hNurr1_RXRaFL EC50
# T1 construct: expressed in transfected cells; host or cells: Cos-7 cells
# NURR-1/RXRγ = molecular target: T2, NURR-1/RXRγ (Homo sapiens, UniProt P48443); assay: Transactivation test, NURR-1-Gal4/RXRγ, luciferase reporter in Cos-7 cells; type: cell-based; conditions: for Emax: COS-7, induction level relative to reference XCT0135908 at 2×10^−5 M (=100%), read-out: hNurr1_RXRgFL Emax (%); for pEC50: Cos-7 cells, NURR-1-Gal4/RXRγ, luciferase reporter, read-out: hNurr1_RXRgFL EC50
# T2 construct: expressed in transfected cells; host or cells: Cos-7 cells
# T2 sequence (P48443 whole entry, the tested form may be a part): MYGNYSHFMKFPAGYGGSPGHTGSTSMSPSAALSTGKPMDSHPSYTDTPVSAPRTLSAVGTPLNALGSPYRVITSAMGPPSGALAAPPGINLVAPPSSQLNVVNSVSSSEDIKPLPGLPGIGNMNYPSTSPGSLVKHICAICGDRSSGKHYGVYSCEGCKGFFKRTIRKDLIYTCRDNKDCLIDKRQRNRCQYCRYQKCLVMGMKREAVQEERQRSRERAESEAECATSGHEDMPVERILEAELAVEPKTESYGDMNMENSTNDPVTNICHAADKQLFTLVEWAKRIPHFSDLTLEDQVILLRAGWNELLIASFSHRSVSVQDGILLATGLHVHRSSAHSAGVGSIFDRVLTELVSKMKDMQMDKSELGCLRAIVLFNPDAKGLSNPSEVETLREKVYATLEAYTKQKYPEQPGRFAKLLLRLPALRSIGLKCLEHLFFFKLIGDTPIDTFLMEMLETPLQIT
# T2 sequence (P43354 whole entry partner, the tested form may be a part): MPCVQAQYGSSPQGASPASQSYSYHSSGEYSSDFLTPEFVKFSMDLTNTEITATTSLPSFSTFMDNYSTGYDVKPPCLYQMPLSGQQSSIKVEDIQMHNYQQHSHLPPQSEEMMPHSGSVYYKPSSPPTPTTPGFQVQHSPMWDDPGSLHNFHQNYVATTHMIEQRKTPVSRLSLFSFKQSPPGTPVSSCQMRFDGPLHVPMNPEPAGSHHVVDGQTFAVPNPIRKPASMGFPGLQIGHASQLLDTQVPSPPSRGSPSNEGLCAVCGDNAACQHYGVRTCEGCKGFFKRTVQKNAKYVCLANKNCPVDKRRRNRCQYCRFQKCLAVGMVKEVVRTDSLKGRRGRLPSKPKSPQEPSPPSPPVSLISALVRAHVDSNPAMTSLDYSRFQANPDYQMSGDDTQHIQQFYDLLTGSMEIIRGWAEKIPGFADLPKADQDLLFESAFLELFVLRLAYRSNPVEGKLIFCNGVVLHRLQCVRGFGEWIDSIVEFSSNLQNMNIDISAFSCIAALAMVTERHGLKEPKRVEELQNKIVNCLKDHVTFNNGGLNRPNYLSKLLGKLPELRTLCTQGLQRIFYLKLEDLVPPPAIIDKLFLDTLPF
# T2 sequence (P04386 1-147 partner limits assumed): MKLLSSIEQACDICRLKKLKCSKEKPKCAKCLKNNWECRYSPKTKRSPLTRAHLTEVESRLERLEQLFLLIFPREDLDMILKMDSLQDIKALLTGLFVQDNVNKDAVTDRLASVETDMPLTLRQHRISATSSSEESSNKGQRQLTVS
# T1 sequence (P19793 whole entry, the tested form may be a part): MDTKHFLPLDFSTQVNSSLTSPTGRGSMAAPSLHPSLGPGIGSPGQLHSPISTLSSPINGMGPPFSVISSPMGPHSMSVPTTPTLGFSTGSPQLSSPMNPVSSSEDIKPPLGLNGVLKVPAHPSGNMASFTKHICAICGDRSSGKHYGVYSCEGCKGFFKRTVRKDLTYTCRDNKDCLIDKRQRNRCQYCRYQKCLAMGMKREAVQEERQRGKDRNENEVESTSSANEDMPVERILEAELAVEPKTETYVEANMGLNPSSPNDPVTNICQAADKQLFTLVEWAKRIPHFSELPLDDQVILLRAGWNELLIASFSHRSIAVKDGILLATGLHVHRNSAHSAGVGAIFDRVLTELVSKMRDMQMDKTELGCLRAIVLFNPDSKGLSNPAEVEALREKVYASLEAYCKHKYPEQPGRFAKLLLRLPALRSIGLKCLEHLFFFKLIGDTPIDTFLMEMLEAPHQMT
# T1 sequence (P43354 whole entry partner, the tested form may be a part): as the sequence (P43354 whole entry partner, the tested form may be a part) above
# T1 sequence (P04386 1-147 partner limits assumed): as the sequence (P04386 1-147 partner limits assumed) above
Structure (SMILES),Emax (NURR-1/RXRα),pEC50 (NURR-1/RXRα),Emax (NURR-1/RXRγ),pEC50 (NURR-1/RXRγ)
"CC(C)Cc1ccc2c(c1)OC(C)(C)CN2c1cccc(N2CC(C(=O)O)C2)c1 [Example 230, 1-[3-(7-isobutyl-2,2-dimethyl-3H-1,4-benzoxazin-4yl)phenyl]azetidine-3-carboxylic acid]",62%,6.27,85%,6.00
"CCCc1ccc(C(C)C)cc1-c1cccc(N2CC(C(=O)O)C2)c1 [Example 195, piperazin-1-ium-1-[3-(5-isopropyl-2-propylphenyl)phenyl]azetidine-3-carboxylate]",105%,8.15,,6.94
"Cc1cc(-c2cccc(N3CC(C(=O)O)C3)c2)nc(-c2ccccc2)n1 [Example 39, 1-[3-(6-methyl-2-phenylpyrimidin-4-yl)phenyl]azetidine-3-carboxylic acid]",104%,6.68,110%,6.33
"O=C(O)C1CN(c2cccc(-n3c(=O)n(CC4CCCC4)c4cc(C(F)(F)F)ccc43)c2)C1 [Example 149, 1-[3-[3-(cyclopetnylmethyl)-2-oxo-5-(trifluoromethyl)benzimidazol-1-yl]phenyl]azetidine-3-carboxylic acid]",99%,8.10,97%,7.72
Cc1cn(-c2cccc(N3CC(C(=O)NCC(C)C)C3)c2)c2ccc(C(F)(F)F)cc12 [Example 167],109%,7.60,131%,7.39
"CCCOc1ccc(C(F)(F)F)cc1-c1cccc(N2CC(C(=O)O)C2)c1 [Example 88, 1-[3-[2-propoxy-5-(trifluromethyl)phenyl]phenyl]azetidine-3-carboxylic acid]",69%,7.22,80%,7.14
"CC1(C)CN(c2cccc(N3CC(C(=O)NCCO)C3)c2)c2ccc(C(F)(F)F)cc2O1 [Example 275, 1-[3-[2,2-dimethyl-7-(trifluoromethyl)-3H-1,4-benzoxazin-4-yl]phenyl]-N-(2-hydroxyethyl)azetidine-3-carboxamide]",109%,8.10,98%,7.36
"O=C(O)C1CN(c2cccc(N3CC4(CCCC4)c4cc(Cl)ccc43)c2)C1 [Example 257, tert-butylammonium 1-[3-(5′-chlorospiro[cyclopentane-1,3′-indolin]-1′-yl)phenyl]azetidine-3-carboxyate]",103%,7.64,89%,7.23
"O=C(O)C1CN(c2cccc(-c3ccc(Cl)c(C(F)(F)F)n3)c2)C1 [Example 76, 1-[3-[5-chloro-6-(trifluromethyl)-2-pyridyl]phenyl]azetidine-3-carboxylic acid]",71%,6.13,51%,5.59
"O=C(O)C1CN(c2cccc(-c3ccnc(C(F)(F)F)c3)c2)C1 [Example 32, 1-[3-[2-(trifluoromethyl)-4-pyridyl]phenyl]azetidine-3-carboxylic acid]",71%,< 5.30,62%,< 5.30
"O=C(O)C1CN(c2cccc(-c3cncc(C(F)(F)F)c3)c2)C1 [Example 34, 1-[3-[5-(trifluoromethyl)3-pyridyl]phenyl]azetidine-3-carboxylic acid]",69%,< 5.30,64%,< 5.30
"O=C(O)C1CN(c2cccc(-c3cccc(C(F)(F)F)n3)c2)C1 [Example 38, 1-[3-[6-(trifluoromethyl)-2-pyridyl]phenyl]azetidine-3-carboxylic acid]",75%,< 5.30,33%,< 5.30
"CCc1cc2c(c(-c3cccc(N4CC(C(=O)O)C4)c3)c1)NCC(C)(C)O2 [Example 207, tert-butylammonium 1-[3-(7-ethyl-2,2-dimethyl-3,4-dihydro-1,4-benzoxazin-5-yl)phenyl]azetidine-3-carboxylate]",112%,7.82,103%,7.80
Cn1cc(-c2cc(Cl)cc(N3CC(C(=O)O)C3)c2)c2ccc(C(F)(F)F)cc21 [Example 29],78%,,85%,
"COc1cccc(COc2ccc(C(F)(F)F)cc2-c2cccc(N3CC(C(=O)O)C3)c2)c1 [Example 92, 1-[3-[2-[(3-methoxyphenyl)methoxy]-5-(trifluoromethyl)phenyl]phenyl]azetidine-3-carboxylic acid]",59%,7.54,36%,7.03
O=C(O)C1CN(c2cccc(-c3cc(C(F)(F)F)ccc3OCc3cccs3)c2)C1 [Example 96],117%,8.15,96%,8.00

Structure (SMILES),Emax (NURR-1/RXRα),pEC50 (NURR-1/RXRα),Emax (NURR-1/RXRγ),pEC50 (NURR-1/RXRγ)
"Cn1cc(-c2cccc(N3CC(C(=O)O)C3)c2)c2ccc(C(F)(F)F)cc21 [Example 30, 1-[3-[1-methyl-6-(trifluoromethyl)indol-3-yl]phenyl]azetidine-3-carboxylic acid]",102%,7.85,97%,7.38
"Cn1ccc(COc2ccc(C(F)(F)F)cc2-c2cccc(N3CC(C(=O)O)C3)c2)n1 [Example 108, 1-[3-[2-[(1-methylpyrazol-3-yl)methoxy]-5-(trifluoromethyl)phenyl]phenyl]azetidine-3-carboxylic acid]",53%,7.09,54%,6.95
CC1(C(=O)O)CN(c2cccc(-c3ccc4c(c3)C(C)(C)CCC4(C)C)c2)C1 [Example 87],69%,< 5.30,38%,< 5.30
"CC1(C)CN(c2cccc(N3CC(C(=O)O)C3)c2)c2ccc(C(F)(F)F)cc2O1 [Example 112, 1-[3-[2,2-dimethyl-7-(trifluoromethyl)-3H-1,4,benzoxazin-4-yl]phenyl]azetidine-3-carboxylic acid]",125%,8.52,136%,8.05
"Cc1cn(-c2cccc(N3CC(C(=O)NC(C)(C)C)C3)c2)c2ccc(C(F)(F)F)cc12 [Example 171, N-tert-butyl-1-[3-[3-methyl-5-(tirfluoromethyl)indol-1-yl]phenyl]azetidine-3-carboxamide]",111%,7.14,114%,6.47
"Cc1cc(N2CC(C(=O)O)C2)cc(-n2cc(C)c3cc(C(F)(F)F)ccc32)c1 [Example 49, 1-[3-methyl-5-[3-methyl-5-(trifluoromethyl)indol-1-yl]phenyl]azetidine-3-carboxylic acid]",99%,9.00,114%,9.00
"Cc1cc(-c2cc(N(C)C)cc(C(F)(F)F)c2)cc(N2CC(C(=O)O)C2)c1 [Example 2, 1-[3-[3-(dimethylamino)-5-(trifluoromethyl)phenyl]-5-methylphenyl]azetidine-3-carboxylate acid]",119%,7.72,119%,7.49
"O=C(O)C1CN(c2cccc(-c3cccc(-c4ccccc4)n3)c2)C1 [Example 40, 1-[3-(6-phenyl-2-pyridyl)phenyl]azetidine-3-carboxylic acid]",80%,6.25,62%,6.06
"COCCOc1ccc(C(F)(F)F)cc1-c1cccc(N2CC(C(=O)O)C2)c1 [Example 102, 1-[3-[2-(2-methoxyethoxy)-5-(trifluoromethyl)phenyl]phenyl]azetidine-3-carboxylic acid]",97%,6.80,94%,6.90
"CCCC1CNc2c(cc(C(F)(F)F)cc2-c2cccc(N3CC(C(=O)O)C3)c2)O1 (centres unmarked) [Example 67, 1-[3-[2-propyl-7-(trifluoromethyl)-3,4-dihydro-2H-1,4-benzoxazin-5-yl]phenyl]azetidine-3-carboxylic acid]",67%,7.60,82%,7.55
"CC(=O)NCCCNC(=O)C1CN(c2cccc(-n3cc(C)c4cc(C(F)(F)F)ccc43)c2)C1 [Example 182, N-(3-acetamidopropyl)-1-[3-[3-methyl-5-(trifluoromethyl)indol-1-yl]phenyl]azetidine-3-carboxylate]",98%,8.15,111%,7.85
CCC1(CC)C=C(c2cccc(N3CC(C(=O)O)C3)c2)c2ccc(C(F)(F)F)cc2O1 [Example 265],79%,8.52,79%,8.10
"Cc1cn(-c2cccc(N3CC(C(=O)NCCCN4CCNCC4)C3)c2)c2ccc(C(F)(F)F)cc12 [Example 164, 1-[3-[3-methyl-5-(trifluoromethyl)indol-1-yl]phenyl]-N-(3-piperazia-1-ylpropyl)azetidine-3-carboxamide]",85%,6.14,88%,5.78
"O=C(O)C1CN(c2cccc(-c3cc(C(F)(F)F)cc(Cl)n3)c2)C1 [Example 74, 1-[3-[6-chloro-4-(trifluoromethyl)2-pyridyl]phenyl]azetidine-3-carboxylic acid]",121%,6.73,86%,6.65
"Cc1cn(-c2cccc(N3CC(C(=O)NCCN4CCOCC4)C3)c2)c2ccc(C(F)(F)F)cc12 [Example 170, 1-[3-[3-methyl-5-(trifluoromethyl)indol-1-yl]phenyl]-N-(2-morpholinoethyl)azetidine-3-carboxamide]",100%,7.57,90%,7.49
O=C(O)C1CN(c2cccc(-c3cc(C(F)(F)F)ccc3OCC3CCOC3)c2)C1 (centres unmarked) [Example 91],43%,6.56,77%,6.55
